Measurements reported in paper PMC6271338, “Synthesis and Cytotoxic Evaluation of Alkoxylated Chalcones” (Molecules, 2014).

Tests used:
HepG2 cells = assay: In vitro anti-proliferative SRB assay, HepG2; assay type: cell-based, human; conditions: for inhibition at 10 µM / IC50: Homo sapiens; for IC50: HepG2, increasing concentrations up to 30 μM, mean ± SD of at least three independent experiments; for SI (CC50 HMLE/IC50 HepG2) / SI (CC50 L02/IC50 HepG2): selectivity index; for SI (CC50 HMLE/IC50 HepG2): HMLE vs HepG2; for SI (CC50 L02/IC50 HepG2): L02 vs HepG2
Experimental: (§1) HepG2 and MCF7 cells were grown in the Eagle’s minimum essential medium with Earle’s balanced salts (MEM-EBSS) medium, HeLa, A549 and L02 cells were grown in Dulbecco’s Modified Eagle Media (DMEM), SW1990 cells were grown in RPMI-1640 medium, and HMLE cell were grown in DMEM/F-12 medium. […]
(§2) Cells were seeded into 96-well plates (4000 cells/well) and incubated at 37 °C in a humidified 5% CO2 atmosphere. After 24 h, the cells were treated with different concentrations of the compounds for 48 h in triplicate to generate dose-response curves. Cell viability was evaluated using the sulforhodamine B (SRB) assay as previous described.

[1] = Cytotoxicity (SRB) against non-tumoral HMLE cells; assay type: cell-based, human; conditions: human, HMLE cells (non-tumoral human mammary epithelial cells); increasing concentrations up to 100 μM; mean ± SD of at least three independent experiments; read-out: Normal Human Cell Lines, CC50, HMLE
Experimental: (§3) All compounds were also evaluated for their cytotoxic activity against two non-tumoral human cell lines named human mammary epithelial cell (HMLE) and L02 (a human liver cell line) in Table 2 and SI values between the CC50 in non-tumoral cell lines and IC50 in tumoral cells calculated.
as §1
as §2, with “described. […] Etoposide was used as the positive control.” for “described.”

[2] = Cytotoxicity (SRB) against non-tumoral L02 cells; assay type: cell-based, human; conditions: human, L02 cells (non-tumoral human liver cell line); increasing concentrations up to 100 μM; mean ± SD of at least three independent experiments; read-out: Normal Human Cell Lines, CC50, L02
Experimental: as §3, §1
as §2, with “described. […] Etoposide was used as the positive control.” for “described.”

MCF-7 cells = assay: In vitro anti-proliferative SRB assay, MCF-7; assay type: cell-based, human; conditions: for IC50: Homo sapiens, MCF7, increasing concentrations up to 30 μM, mean ± SD of at least three independent experiments; for SI (CC50 HMLE/IC50 MCF7) / SI (CC50 L02/IC50 MCF7): selectivity index; for SI (CC50 HMLE/IC50 MCF7): HMLE vs MCF7; for SI (CC50 L02/IC50 MCF7): L02 vs MCF7
Experimental: as §1, §2

SW1990 cells = assay: In vitro anti-proliferative SRB assay, SW1990; assay type: cell-based, human; conditions: for IC50: Homo sapiens, SW1990, increasing concentrations up to 30 μM, mean ± SD of at least three independent experiments; for SI (CC50 HMLE/IC50 SW1990) / SI (CC50 L02/IC50 SW1990): selectivity index; for SI (CC50 HMLE/IC50 SW1990): HMLE vs SW1990; for SI (CC50 L02/IC50 SW1990): L02 vs SW1990
Experimental: as §1, §2

A549 cells = assay: In vitro anti-proliferative SRB assay, A549; assay type: cell-based, human; conditions: for IC50: Homo sapiens, A549, increasing concentrations up to 30 μM, mean ± SD of at least three independent experiments; for SI (CC50 HMLE/IC50 A549) / SI (CC50 L02/IC50 A549): selectivity index; for SI (CC50 HMLE/IC50 A549): HMLE vs A549; for SI (CC50 L02/IC50 A549): L02 vs A549
Experimental: as §1, §2

HeLa cells = assay: In vitro anti-proliferative SRB assay, HeLa; assay type: cell-based, human; conditions: for IC50: Homo sapiens, HeLa, increasing concentrations up to 30 μM, mean ± SD of at least three independent experiments; for SI (CC50 HMLE/IC50 Hela) / SI (CC50 L02/IC50 Hela): selectivity index; for SI (CC50 HMLE/IC50 Hela): HMLE vs HeLa; for SI (CC50 L02/IC50 Hela): L02 vs HeLa
Experimental: as §1, §2

[3] = HepG2 cells, 10 μM, SRB assay, mean ± SD of three independent experiments

Compound: COc1ccc(C(=O)/C=C/c2cccc(OC)c2OC)cc1 [a12, (E)-1-(4-Methoxyphenyl)-3-(2,3-dimethoxyphenyl)prop-2-en-1-one]
- inhibition at 10 µM (HepG2 cells; [3]): 66.3 ± 4.2%

Compound: COc1ccc(C(=O)/C=C/c2cc(OC)ccc2OC)cc1 [a13, (E)-1-(4-methoxyphenyl)-3-(2,5-dimethoxyphenyl)prop-2-en-1-one]
- inhibition at 10 µM (HepG2 cells; [3]): 77 ± 2.2%
- melting point: 54.7 to 56.3 °C

Compound: COc1ccc(C(=O)/C=C/c2c(OC)cccc2OC)cc1 [a14, (E)-1-(4-Methoxyphenyl)-3-(2,6-dimethoxyphenyl)prop-2-en-1-one]
- inhibition at 10 µM (HepG2 cells; [3]): 78.1 ± 4.7%
- melting point: 123.7 to 125.7 °C

Compound: COc1ccc(C(=O)/C=C/c2ccc(OC)c(OC)c2)cc1 [a15, (E)-1-(4-Methoxyphenyl)-3-(3,4-dimethoxyphenyl)prop-2-en-1-one]
- inhibition at 10 µM (HepG2 cells; [3]): 65 ± 17.6%

Compound: COc1ccc(C(=O)/C=C/c2cc(OC)cc(OC)c2)cc1 [a16, (E)-1-(4-Methoxyphenyl)-3-(3,5-dimethoxyphenyl)prop-2-en-1-one]
- CC50 at 48 h [1]: 3.28 ± 0.31 µM
- CC50 at 48 h [2]: 8.87 ± 1.83 µM
- IC50 (MCF-7 cells): 23.1 ± 0.79 µM
- SI (CC50 HMLE/IC50 MCF7) (MCF-7 cells): 0.1
- SI (CC50 L02/IC50 MCF7) (MCF-7 cells): 0.4
- IC50 (HepG2 cells): 9.2 ± 0.31 µM
- inhibition at 10 µM (HepG2 cells; [3]): 70.6 ± 2%
- SI (CC50 HMLE/IC50 HepG2) (HepG2 cells): 0.4
- SI (CC50 L02/IC50 HepG2) (HepG2 cells): 1.0
- IC50 (SW1990 cells): 17.8 ± 0.07 µM
- SI (CC50 HMLE/IC50 SW1990) (SW1990 cells): 0.2
- SI (CC50 L02/IC50 SW1990) (SW1990 cells): 0.5
- melting point: 87.6 to 89.1 °C
- IC50 (A549 cells): 21.2 ± 0.55 µM
- SI (CC50 HMLE/IC50 A549) (A549 cells): 0.2
- SI (CC50 L02/IC50 A549) (A549 cells): 0.4
- IC50 (HeLa cells): 12.4 ± 0.34 µM
- SI (CC50 HMLE/IC50 Hela) (HeLa cells): 0.3
- SI (CC50 L02/IC50 Hela) (HeLa cells): 0.7

Compound: COc1ccc(C(=O)/C=C/c2ccc(OC)c(OCc3ccccc3)c2)cc1 [a17, (E)-1-(4-Methoxyphenyl)-3-(3-(benzyloxy)-4-methoxyphenyl)prop-2-en-1-one]
- inhibition at 10 µM (HepG2 cells; [3]): 44.1 ± 6.2%
- melting point: 115 to 118.2 °C

Compound: COc1ccc(C(=O)/C=C/c2ccc(OC)c(OC)c2OC)cc1 [a18, (E)-1-(4-Methoxyphenyl)-3-(2,3,4-trimethoxyphenyl)prop-2-en-1-one]
- inhibition at 10 µM (HepG2 cells; [3]): 31.8 ± 7.3%
- melting point: 94.4 to 96.5 °C

Compound: COc1ccc(C(=O)/C=C/c2cc(OC)c(OC)cc2OC)cc1 [a19, (E)-1-(4-Methoxyphenyl)-3-(2,4,5-trimethoxyphenyl)prop-2-en-1-one]
- inhibition at 10 µM (HepG2 cells; [3]): 38.1 ± 10.3%
- melting point: 122.1 to 123.7 °C

Compound: COc1cccc(OC)c1/C=C/C(=O)c1ccccc1 [b1, (E)-1-Phenyl-3-(2,6-dimethoxyphenyl)prop-2-en-1-one]
- CC50 at 48 h [1]: 9.47 ± 0.39 µM
- IC50 (MCF-7 cells): 28.18 ± 0.04 µM
- SI (CC50 HMLE/IC50 MCF7) (MCF-7 cells): 0.3
- SI (CC50 L02/IC50 MCF7) (MCF-7 cells): 1.2
- IC50 (HepG2 cells): 21 ± 1.75 µM
- SI (CC50 HMLE/IC50 HepG2) (HepG2 cells): 0.5
- SI (CC50 L02/IC50 HepG2) (HepG2 cells): 1.6
- IC50 (SW1990 cells): > 30 µM
- SI (CC50 HMLE/IC50 SW1990) (SW1990 cells): <0.3
- SI (CC50 L02/IC50 SW1990) (SW1990 cells): <1.1
- melting point: 52.6 to 54.7 °C
- IC50 (A549 cells): > 30 µM
- SI (CC50 HMLE/IC50 A549) (A549 cells): <0.3
- SI (CC50 L02/IC50 A549) (A549 cells): <1.1
- IC50 (HeLa cells): > 30 µM
- SI (CC50 HMLE/IC50 Hela) (HeLa cells): <0.3
- SI (CC50 L02/IC50 Hela) (HeLa cells): <1.1

Compound: COc1cccc(OC)c1/C=C/C(=O)c1ccccc1C [b2, (E)-1-(2-Methylphenyl)-3-(2,6-dimethoxyphenyl)prop-2-en-1-one]
- CC50 at 48 h [1]: 15 ± 0.78 µM
- CC50 at 48 h [2]: 35.9 ± 3.4 µM
- IC50 (MCF-7 cells): 19.1 ± 2.11 µM
- SI (CC50 HMLE/IC50 MCF7) (MCF-7 cells): 0.8
- SI (CC50 L02/IC50 MCF7) (MCF-7 cells): 1.9
- IC50 (HepG2 cells): 14.1 ± 1.84 µM
- SI (CC50 HMLE/IC50 HepG2) (HepG2 cells): 1.1
- SI (CC50 L02/IC50 HepG2) (HepG2 cells): 2.5
- IC50 (SW1990 cells): > 30 µM
- SI (CC50 HMLE/IC50 SW1990) (SW1990 cells): <0.5
- SI (CC50 L02/IC50 SW1990) (SW1990 cells): <1.2
- melting point: 79.8 to 81.4 °C
- IC50 (A549 cells): 25.5 ± 4.14 µM
- SI (CC50 HMLE/IC50 A549) (A549 cells): 0.6
- SI (CC50 L02/IC50 A549) (A549 cells): 1.4
- IC50 (HeLa cells): 18.4 ± 0.75 µM
- SI (CC50 HMLE/IC50 Hela) (HeLa cells): 0.8
- SI (CC50 L02/IC50 Hela) (HeLa cells): 1.9

Compound: COc1cccc(OC)c1/C=C/C(=O)c1cccc(C)c1 [b3, (E)-1-(3-Methylphenyl)-3-(2,6-dimethoxyphenyl)prop-2-en-1-one]
- CC50 at 48 h [1]: 16.2 ± 0.19 µM
- CC50 at 48 h [2]: 33.3 ± 1.61 µM
- IC50 (MCF-7 cells): 26.8 ± 4.26 µM
- SI (CC50 HMLE/IC50 MCF7) (MCF-7 cells): 0.6
- SI (CC50 L02/IC50 MCF7) (MCF-7 cells): 1.2
- IC50 (HepG2 cells): 12.8 ± 0.5 µM
- SI (CC50 HMLE/IC50 HepG2) (HepG2 cells): 1.3
- SI (CC50 L02/IC50 HepG2) (HepG2 cells): 2.6
- IC50 (SW1990 cells): 25.2 ± 2 µM
- SI (CC50 HMLE/IC50 SW1990) (SW1990 cells): 0.6
- SI (CC50 L02/IC50 SW1990) (SW1990 cells): 1.3
- melting point: 102.5 to 103.8 °C
- IC50 (A549 cells): 20.7 ± 0.59 µM
- SI (CC50 HMLE/IC50 A549) (A549 cells): 0.8
- SI (CC50 L02/IC50 A549) (A549 cells): 1.6
- IC50 (HeLa cells): 13.3 ± 2.14 µM
- SI (CC50 HMLE/IC50 Hela) (HeLa cells): 1.2
- SI (CC50 L02/IC50 Hela) (HeLa cells): 2.5

Compound: (E)-1-(4-Methoxyphenyl)-3-(4-carbonylphenyl)prop-2-en-1-one [a7]
- Inhibition (%) (HepG2 cells; [3]): 32.7 ± 3.0%
